In patent publication US20170299579A1, “VITELLINE MEMBRANE AS A MODEL OF THE BLOOD BRAIN BARRIER” (priority 2016, published 2017):
Read-outs that look alike come from different tables or passages of the source.

What was measured:
[1] = Spectrophotometric absorbance of albumen of decalcified quail eggs after incubation with agent; format: in vitro ADME
Procedure: (§1) An Ultrospect III spectrophotometer (Pharmacia, Cambridge, England) was recently calibrated by Spectrofuge Corporation of North Carolina, Inc. (Durham, N.C.). Blank quartz cuvettes were selected with the smallest deviation in absorbance. Standard solutions of 2.6×10^−3M acetaminophen and 4.4×10^−3 2-cholorprocaine were prepared. Approximate peak ultraviolet wavelengths were determined with the standard solutions in methanol and PBS. Fine adjustment of the optimum wavelength was performed by retrofit of Beer's law plots of the standards and dilutions. Optimum absorbance wavelengths for acetaminophen and 2-chloroprocaine were 300 nm 329 nm, respectively. Optimum absorbance wavelengths for acetaminophen and 2-choroprocaine dissolve in PBS were 319 nm and 340, respectively. (Table 3)
(§2) The decalcified eggs were soaked in solutions for 2 or 12 hours and then placed in a home freezer prior to analysis. The quail eggs were opened with a razor knife and the denatured albumen and yolk were separated. In most samples the vitelline membrane could be easily separated from the yolk. Samples of the denatured albumen and yolk were dissolved in 5 ml of methanol or PBS and centrifuged at 2700 rpm for 5 minutes. The supernatants were then clarified through a 0.2 micrometer filter (MILLEX-FG, Merck Millipore, Ltd). Clarification of the PBS samples was more difficult than the methanol samples. The clear filtrate was placed in quartz cuvettes. Any air bubbles were eliminated and the samples were analyzed in the spectrophotometer. (Tables 4&5)

[2] = Spectrophotometric absorbance of yolk of decalcified quail eggs after incubation with agent; format: in vitro ADME
Procedure: as §1, §2

[3] = Permeability of vitelline membrane of decalcified quail eggs (agent reaching the yolk), model of the human blood brain barrier
[4] = not told
[5] = not told; remark: listed apart in the source
[6] = in PBS, 4.4 × 10^−2 m/l, 340 nm, 12 hours
[7] = in methanol, 4.4 × 10^−2 m/L, 329 nm, 2 hours
[8] = in methanol, 4.4 × 10^−2 m/L, 329 nm, 12 hours

Compound | Permeability (outer and inner membrane) [4] | Permeability (vitelline membrane) [5] | also measured
CCN(CC)CCOC(=O)c1ccc(N)cc1Cl [2-Chloroprocaine] |  |  | Albumen (abs) [1, 6]: 0.48 abs; Albumen (abs) [1, 7]: 1.86 abs; Albumen (abs) [1, 8]: 2.52 abs; Yolk (abs) [2, 6]: 1.04 abs; Yolk (abs) [2, 7]: 1.37 abs; Yolk (abs) [2, 8]: 1.71 abs; Permeability (vitelline membrane) ([3]; agent in PBS, 2-Chloroprocaine 4 × 10^−2 M, Acetaminophen 2.6 × 10^−1 M, incubation time 12 hours): +; Permeability (vitelline membrane) ([3]; agent in methanol, 2-Chloroprocaine 4 × 10−2 M, Acetaminophen 2.6 × 10^−1 M, incubation time 2 & 12 hours): +; Crossing of the vitelline membrane ([3]; spectroscopic analysis): crossed the vitelline membrane
CC(=O)Nc1ccc(O)cc1 [Acetaminophen] | + | + | Albumen (abs) ([1]; quail, 2 h): 2.85 abs; Yolk (abs) ([2]; quail, 2 h): 2.40 abs; Crossing of the vitelline membrane [5]: crossed the vitelline membrane
Cc1cc(C2(c3ccc(O)c(C)c3)OS(=O)(=O)c3ccccc32)ccc1O [Creosol red] | + | − | 
CCO [Ethanol] | + | + | Crossing of the vitelline membrane [5]: crossed the vitelline membrane
CCOCC [Ether, diethyl ether] | + |  | 
CCN(Cc1cccc(S(=O)(=O)[O-])c1)c1ccc(C(=C2C=CC(=[N+](CC)Cc3cccc(S(=O)(=O)[O-])c3)C=C2)c2ccccc2S(=O)(=O)[O-])cc1.[Na+].[Na+] [FD&C Blue #1] | + | − | 
O=C1OC2(c3ccc(O)cc3Oc3cc(O)ccc32)c2ccccc21 [Fluorescein] | + | − | 
CN(C)c1ccc(C(=C2C=CC(=[N+](C)C)C=C2)c2ccccc2)cc1 [Malachite green] |  |  | Permeability (vitelline membrane) ([3]; 0.01M, incubation time 2 hours): −
CN(C)c1ccc(/N=N/c2ccccc2C(=O)O)cc1 [Methyl red] | + | − | 
[K+].[K+].[O]=[Cr](=[O])([O-])[O][Cr](=[O])(=[O])[O-] [Potassium dichromate] |  |  | Permeability (vitelline membrane) ([3]; 0.01M, incubation time 2 hours): −
C=C[C@H]1C[N@@]2CC[C@H]1C[C@H]2[C@H](O)c1ccnc2ccc(OC)cc12 [Quinine] | + | − | 
